{
  "source": "patent US20040022726A1",
  "about": "“Methods and compositions for intravesical therapy of bladder cancer” (priority 2002, published 2004)",
  "tested_on": "superficial cancer of the urinary bladder",
  "conditions": "human, in vivo",
  "experimental": "Antibody-Mediated Radioimmunotherapy Using a Beta-Emitting Radionuclide A patient with a superficial cancer of the urinary bladder is treated with a 1:1 molar mixture of the bispecific antibody hMN-14×679-F(ab′)2 [anti-CEA×anti-HSG] of example 1, and the carrier-free Y-90-IMP 241 bivalent hapten of example 3, above. The premixed radioimmunotherapy agent is introduced into the bladder via a urethral catheter inserted under local anesthetic. Prior to injection, the bladder is drained completely, and 70 mL of the complex in 70 mL 0.9% NaCl (comprising 20 mg of the bispecific antibody and 10 mCi of Y-90 conjugated to the bivalent hapten) are instilled and allowed 90 minutes to localize by binding to tumor tissue. The unbound radiolabeled is bispecific antibody mixture is then allowed to evacuate the bladder through the urethra, by washing out the bladder using 50 mL 0.9% NaCl, leaving the remaining administered radioactivity bound substantially only to tumor cells. Seventy-two hours later, the patient is taken to the operating room, where biopsies of macroscopically normal urothelium and bladder tumor are made. The urothelium is separated from the underlying mucularis layer and assayed in a beta scintillating counter to allow measurement of radioactivity in the tumor and in the normal tissue, and then the preparations were fixed in formalin for histopathological evaluation. […]",
  "note": "Numbered stars: 1 amine (or outer) side, 2 acyl side, 3 side chain; on linkers, the order of the positions; unused ones are H or OH. Square brackets hold non-standard residues; d marks the D form. Side chains are listed from the residue outwards. Peptide text beside a SMILES is read from it. * marks the point of attachment. DOTA = O=C(O)CN1CCN(CC(=O)O)CCN(CC(=O)*)CCN(CC(=O)O)CC1; NH(2-(imidazol-4-yl)ethyl) = c1ncc(CCN*)[nH]1; Suc = O=C(CCC(=O)[*:2])[*:1]",
  "data": [
    {"compound": "NC(=O)[C@H](CCCCNC(=O)CNC(=O)CCC(=O)NCCc1cnc[nH]1)NC(=O)[C@@H](Cc1ccc(O)cc1)NC(=O)[C@H](CCCCNC(=O)CNC(=O)CCC(=O)NCCc1cnc[nH]1)NC(=O)[C@H](Cc1ccccc1)NC(=O)CN1CCN(CC(=O)O)CCN(CC(=O)O)CCN(CC(=O)O)CC1", "note": "[Y-90-IMP 241, metal not drawn] ({DOTA}-FK([Gly-Suc-NH(2-(imidazol-4-yl)ethyl)])[dY]K([Gly-Suc-NH(2-(imidazol-4-yl)ethyl)])-NH2)", "values": [
      {"measurement": "histology of normal urothelium", "result": "relatively intact normal urothelium"}
    ]}
  ]
}
